From ChEMBL document CHEMBL3792301, “Isatin derivatives with activity against apoptosis-resistant cancer cells” (Bioorg Med Chem Lett, 2016)

What was measured:
LoVo = assay: Antiproliferative activity against human LoVo cells after 72 hrs by MTT assay; format: functional, cell-based
SK-MEL-28 = assay: Antiproliferative activity against apoptosis resistant human SK-MEL-28 cells after 72 hrs by MTT assay; format: functional, cell-based; conditions: SK-MEL-28, 72 h
[1] = Antiproliferative activity against apoptosis resistant human OE21 cells after 72 hrs by MTT assay; format: functional, cell-based; conditions: OE21, 72 h
MCF7 = assay: Antiproliferative activity against apoptosis sensitive human MCF7 cells after 72 hrs by MTT assay; format: functional, cell-based; conditions: MCF7, 72 h
[2] = Antiproliferative activity against apoptosis sensitive mouse B16F10 cells after 72 hrs by MTT assay; format: functional, cell-based; conditions: B16-F10, 72 h
A549 = assay: Antiproliferative activity against apoptosis resistant human A549 cells after 72 hrs by MTT assay; format: functional, cell-based; conditions: A549, 72 h
[3] = Antiproliferative activity against apoptosis resistant human U373 cells after 72 hrs by MTT assay; format: functional, cell-based, U-373MG ATCC; conditions: U373 MG
[4] = Antiproliferative activity against apoptosis sensitive human Hs683 cells after 72 hrs by MTT assay; format: functional, cell-based; conditions: Hs 683, 72 h
[5] = Antiproliferative activity against apoptosis sensitive human PC3 cells after 72 hrs by MTT assay; format: functional, cell-based; conditions: PC-3, 72 h

Row | SMILES | IC50 (LoVo) [µM] | IC50 (SK-MEL-28) [µM] | IC50 [1] [µM] | IC50 (MCF7) [µM] | IC50 [2] [µM] | IC50 (A549) [µM] | IC50 [3] [µM] | IC50 [4] [µM] | IC50 [5] [µM]
1 | O=C1Nc2c(Cl)cccc2/C1=C1/Nc2ccccc2C1=O | > 100 | > 100 | 35.3 | > 100 | 15.7 | > 100 | > 100 | 55.2 | > 100
2 | O=C1Nc2c(Br)cccc2/C1=C1/Nc2ccccc2C1=O | 32.3 | > 100 | 8.7 | 52.8 | 3.2 | > 100 | 8.1 | 6.9 | > 100
3 | O=C1Nc2ccccc2/C1=C1/Nc2ccccc2/C1=N\O | 8.9 | 26.6 | 8.1 | 9.2 | 5.4 | 27 | 18 | 6 | 24.3
4 | O=C1NC(=S)S/C1=C1\C(=O)Nc2ccccc21 | 69.3 | 96.6 | 47.2 | > 100 | 73.5 | 99 | 85.3 | 93.3 | > 100
5 | CC1(C)CCC2=C(O1)c1ccccc1C(=O)C2=O [LAPACHONE] | 0.3 | 0.6 | 0.6 | 0.5 | 0.3 | 0.8 | 0.4 | 0.4 | < 0.01
6 | O=C1NC(=S)N/C1=C1\C(=O)Nc2c(Br)cccc21 | 37 | 11.7 | 20.2 | 51 | 5 | 3.8 | 4.7 | 40.8 | 22.8
7 | O=C1Nc2c(Br)cccc2/C1=C1/Nc2ccccc2/C1=N\O | 5.6 | 9.8 | 3.9 | 4.9 | 5.3 | 13.9 | 6.6 | 8.1 | 7.8
8 | O=C1Nc2c(F)cccc2/C1=C1/Nc2ccccc2/C1=N\O | 9 | 44.6 | 9.2 | 26.2 | 7.8 | 33.3 | 19.7 | 9.3 | 26
9 | O=C1Nc2ccccc2/C1=C1/Nc2ccccc2C1=O [INDIRUBIN] | > 100 | > 100 | 30.5 | > 100 | 0.2 | > 100 | > 100 | > 100 | > 100
10 | O=C1NC(=O)/C(=C2/C(=O)Nc3ccccc32)N1 | 76.1 | > 100 | 52.3 | 94.6 | 73.3 | 66.5 | > 100 | 84.7 | 95.5
11 | O=C1Nc2c(Cl)cccc2/C1=C1/Nc2ccccc2/C1=N\O | 10.2 | 40.1 | 19.6 | 27.5 | 12.9 | 45.2 | 31.5 | 25.3 | 29.7
